Results taken from patent EP0003788B1, “Glycofuranosyl-nitrosourea derivatives, process for their manufacture and their pharmaceutical preparations” (CIBA-GEIGY AG, priority 1978, dated 1979).

What was measured:
Ehrlich-Ascites-Karzinom = test: Inhibition of tumour growth, Ehrlich ascites carcinoma in mice; type: in vivo, Mäusen
Walker CaSa 256 = test: Inhibition of tumour growth, Walker CaSa 256 in rats; type: in vivo, Ratten
Leukämie L 1210 = test: Prolongation of life, leukaemia L 1210 in mice; type: in vivo, Mäusen
Procedure: So bewirken sie in Dosen von 25-500 mg/kg i.p. eine starke Hemmung des Tumorwachstums bei Mäusen mit z.B. Ehrlich-Ascites-Karzinom und bei Ratten mit z.B. Walker CaSa 256. Analoge Dosen bewirken eine Lebensverlängerung gegenüber Kontrollen bei Mäusen mit z.B. Leukämie L 1210.

[1] = Tolerability and side effects on treatment; type: in vivo
[2] = Macroscopic organ changes in normal animals after three weeks of peroral treatment; type: in vivo

In the case of `CCO[C@@H]1O[C@H]([C@@H](CNC(=O)N(C)N=O)OC)[C@H](O)[C@H]1O` [Äthyl-6-desoxy-5-0-methyl-6-(3-methyl-3-nitroso-ureido)-ß-D-glucofuranosid], the “Hemmung des Wachstums der genannten Tumoren” value (Ehrlich-Ascites-Karzinom; 50-250 mg/kg i.p., mice with Ehrlich ascites carcinoma) is reported as 80-100%, the “Hemmung des Wachstums der genannten Tumoren” value (Ehrlich-Ascites-Karzinom; p.o. application, Ehrlich ascites carcinoma) is reported as “Ähnliche Resultate” and the “Hemmung des Wachstums der genannten Tumoren” value (Walker CaSa 256; 50-250 mg/kg i.p., rats with Walker CaSa 256) is reported as 80-100%. The “Hemmung des Wachstums der genannten Tumoren” value (Walker CaSa 256; p.o. application, Walker CaSa 256) was “Ähnliche Resultate”, the Lebensverlängerung (Leukämie L 1210; 50-250 mg/kg i.p.) was > 90% and the Lebensverlängerung (Leukämie L 1210; p.o. application) was “Ähnliche Resultate”. For the same compound, the Nebenwirkungen ([1]; also on prolonged treatment) was “nicht festzustellen”, the Verträglichkeit ([1]; in vivo) was “gut” and the Organveränderungen [2] was “keine Organveränderungen”.
